The values below come from patent US5736565A, “Therapeutic compounds suitable for the treatment of diseases connected with glutathione deficiency, process for their preparation, and pharmaceutical compositions containing same” (Prospa B.V., priority 1992, dated 1998).

In assay [1] the test system is malonic aldehyde (MDA) in brain. The assay is described as follows: PSC effect on lipid peroxidation (MDA) in rat SNC. The format is in vivo, male Wistar rats. To be noted: old animals, 100 mg/kg i.p. From the text:
Since lipid peroxidation, i.e. the oxidation of an α-methylenic bridge of a polyunsaturated fatty acid, is a process that, through the formation of intermediates (such as lipid peroxides and hydroperoxides), provide carbonyl fragments, including malonic aldehyde (MDA), efforts were made by the Applicant to check whether administration of the test molecule might reduce MDA levels in the SNC, which are closely related to the presence of free radicals and, consequently, to a potential neuronal damage, which is strongly responsible for the induction of age-related alterations.
The test was carried out on male Wistar rats stabled in groups of 5/cage, at 21° C. and constant light/dark cycle, fed with standard laboratory food.
[…] was assayed both on young and old rats, prior to and after treatment with PSC (100 mg/kg). A few hours after treatment, all animals were sacrificed and their brain readily excised. MDA was determined by a micromethod modified according to Slater and Sawyer (Slater T. F. and Sawyer B. C., 1971, J. Biochem., Tokio 8: 2180). The tissue was maintained 10 min. at 0° C. in 0.05M Tris-HCl buffer, pH 7.4, and homogenized. […] After cooling, the absorbance at 532 nm was recorded by a spectrophotometer. […] Proteins were measured by Smith's method using, as a reagent, bicinchoninic acid (BCA) (Smith et al., 1985, Anal. Biochem., 27, 502).

Assay [2] deals with reactive oxygen species (ROS) production of human spermatozoa. The assay is described as follows: Effect of PSC on the spermatic production of free radicals (chemiluminescence with luminol). The format is cell-based. From the text: Free radicals production was investigated under basal and maximal conditions (after A23187 addition) on controls and in the presence of PSC.
A23187 is an ionophore bivalent cation that, under physiological conditions, promotes acrosomial reaction. It is used being capable of stimulating the production of superoxide radicals (Aitken R. J. et al., Generation of reactive oxygen species, lipid peroxidation and human sperm function, J. of Reproduction, 40, 183-197, 1989).
Seminal fluid was obtained from 11 donors previously subjected to a complete medical check-up, to exclude the presence, if any, of sexual transmission diseases. Samples were obtained by masturbation and analysed within 1.5 hrs thereafter.
Spermatozoa were separated from seminal fluid by three centrifugation cycles (500×g for 5 min) and resuspended in medium BWW (Biggers et al., "The culture of mouse embryos in vitro", Daniel J. C. ed., Methods in mammalian embryology, 86-116, 1971) at a concentration of 20×10^6 /ml.
The production of reactive oxygen species (ROS) was evaluated by chemiluminescence with luminol: human spermatozoa suspensions at a concentration of […] in a volume of 500 μl were subjected to the action of luminol (LM 100 mmol/l in dimethyl sulphoxide).Said spermatic suspension was then diluted with 500 μl of medium BWW alone (control) or containing PSC (10 mM); other spermatic suspensions contained A23187 (0.05 mg/ml) alone (positive control) and, respectively, A23187 (0.05 mg/ml)+PSC (10 mM).
3 Minutes later, the chemiluminescent signal was recorded. Reactive oxygen species (ROS) production was expressed as photons brust (cpm) recorded by a luminometer Berthold L 9500.

A further assay deals with hepatic GSH. Put plainly: Test No. 4: dichloropropane (DCP) intoxication in vivo, hepatic GSH. More on the design: species or system rat. Here is the method: A test was carried out in vivo on four groups of four rats each, using, as a toxic substance, dichloropropane (DCP), the main constituent of several solvents. DCP is noxious both by ingestion and inhalation and has a notable toxicity to the liver, mediated by an almost total depletion of thiol groups, including those of GSH.
The experimental model involves the study of the effect of DCP toxicity in the rat, in respect of glutathione (GSH) concentration in the main target tissue: the liver.
Tests were carried out on four groups of rats. The first group of animals was administered 2 ml DCP/kg dissolved in oil (40% v/v) per os. Twenty-four hours after DCP administration, blood samples were taken for SGPT measurement, while the animals were sacrificed; small portions of liver were then excised and immediately deproteinized by homogenization in 6% PCA. The chromatographic analyses of GSH and GSSG (oxidized glutathione) were performed.
The second group of animals was treated with the test drug (600 mg/kg i.p.) two hours after DCP administration. The third and fourth groups were treated with N-acetyl-cysteine (NAC) (250 mg/kg i.p.) and, respectively, with glutathione (Tationil^R) (600 mg/kg i.p.).
An evaluation of the protective action of the test drug in respect of glutathione involvement in hepatic protection mechanisms was thus possible.

In the next assay the test system is interleukin-2 (IL-2). The assay is described as follows: Interleukin-2 (IL-2) production following interleukin-1 (IL-1) i.p. injection in young and old rats. It is filed as in vivo, Sprague-Dawley rats. To be noted: i.p. treated groups. On the procedure: Sprague-Dawley rats (Charles River, Calco (CO)), aged 10 weeks (young adults) and 24 months (old), were stabled under standard conditions (24°±1° C., 12 h light/dark cycle, free access to food and water). Handlings were made in such a way as to avoid stressful stimuli.
The animals were stabled in groups of 6 per cage and treated for 2 weeks (15 days) with a PSC daily dose of 600 mg/kg by intraperitoneal route (i.p.).
With a view to evaluating a further aspect of the immunological activity in PSC-treated (600 mg/kg) animals, according to the aforementioned scheme, an investigation was carried out on interleukin-2 (IL-2) response to the injection of IL-1 that, as known, stimulates IL-2 production from lymphocytes.
Once the treatment was completed, each rat was administered IL-1 (0.1 mg/kg, i.p.). One hour after injection, the animals were killed by decapitation, the blood was collected and centrifuged, and the plasma maintained at -20° C. until IL-2 dosing.
The evaluation of IL-2 production was based on an immunological assay, utilizing a specific antibody produced in heterologous species against rat IL-2. Samples were assayed twice.
The controls are rats treated only with IL-1.

“And” between values parts separate entries of the source, which are not always exact repeats. Identical values can stand only once. Peptide text beside a SMILES is read from it.

In the case of `CC(=O)SC[C@H](NC(=O)[C@@H]1CCC(=O)N1)C(=O)O` [PSC, 2-(S)-(2-pyrrolidone-5-(S)-carbonyl amido)-3-acetylmercapto propionic acid] (HELM PEPTIDE1{[Glp].C}|PEPTIDE2{[ac]}$PEPTIDE1,PEPTIDE2,2:R3-1:R2$$$V2.0), in assay [1], the MDA is recorded as 0.723 +/- 0.32 nmols/mg proteins. Moreover, the “free radicals production (in words)” value in assay [2] (basal and maximal conditions) is recorded as “caused a significant reduction in free radicals production”. For the same molecule, the “ROS production, photons brust” value in assay [2] (medium + A23187 (0.05 mg/ml) + PSC (10 mM)) is given as 270.8 +/- 254 cpm; in assay [2] (medium + PSC (10 mM), basal), 243.7 +/- 235.2 cpm. The “normalization of hepatic GSH (in words)” value in the assay with hepatic GSH (DCP-treated rats) is reported as “could not normalize the values of hepatic GSH”. Besides, the “GSH, average values” in the assay with hepatic GSH (liver, DCP 2 ml/kg per os + 600 mg/kg i.p.) was 2.7 nmol/mg protein. Besides, in the assay on hepatic GSH (liver, DCP 2 ml/kg per os + 600 mg/kg i.p., animals 1-4, listed as (I) (R = CH3), 600 mg/kg), the “GSH, individual animals” value was 2.6 nmol/mg protein and 2.4 nmol/mg protein and 3.4 nmol/mg protein. Besides, the “IL-2 levels (in words)” value in the assay on interleukin-2 (IL-2) was “significant increases were detected in the groups treated i.p. with PSC”.
